# System: K86415-001-R-J1-PDC complex spheroids, viability
# Assay: Anticancer human tumor K86415-001-R-J1-PDC patient-derived lung adenocarcinoma cell line growth inhibition [RAS]
# Conditions: for IC50: curve of first compound; for viability, T/C: stronger effect = lower value
# How it was run: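 Agents were tested in combination matrices in half-log decrements from a top concentration at or near clinical Cmax (10 microM if undetermined). Targets were multi-cell spheroids of tumour lines plus HUVEC and MSC stromal cells.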
# [1] = second compound 0.00316 µM, first compound 0.0316 µM
# [2] = second compound 0.00316 µM, first compound 0.1 µM
# [3] = second compound 0.00316 µM, first compound 0.316 µM
# [4] = second compound 0.00316 µM, first compound 1 µM
# [5] = second compound 0.01 µM, first compound 0.0316 µM
# [6] = second compound 0.01 µM, first compound 0.1 µM
# [7] = second compound 0.01 µM, first compound 0.316 µM
# [8] = second compound 0.01 µM, first compound 1 µM
# [9] = second compound 0.0316 µM, first compound 0.0316 µM
# [10] = second compound 0.0316 µM, first compound 0.1 µM
# [11] = second compound 0.0316 µM, first compound 0.316 µM
# [12] = second compound 0.0316 µM, first compound 1 µM
# [13] = second compound 0.1 µM, first compound 0.0316 µM
# [14] = second compound 0.1 µM, first compound 0.1 µM
# [15] = second compound 0.1 µM, first compound 0.316 µM
# [16] = second compound 0.1 µM, first compound 1 µM
# [17] = second compound 0.316 µM, first compound 0.0316 µM
# [18] = second compound 0.316 µM, first compound 0.1 µM
# [19] = second compound 0.316 µM, first compound 0.316 µM
# [20] = second compound 0.316 µM, first compound 1 µM
# [21] = second compound 1 µM, first compound 0.0316 µM
# [22] = second compound 1 µM, first compound 0.1 µM
# [23] = second compound 1 µM, first compound 0.316 µM
# [24] = second compound 1 µM, first compound 1 µM
# 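Also: spheroids exposed to agents for seven days before readout.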
compound,measurement,setting,value
CC(Nc1ccc2c(c1)OCCn1cc(N3C(=O)OCC3C(F)F)nc1-2)C(N)=O (centres undefined) + C=CC(=O)N1CCN(c2nc(OCC3CCCN3C)nc3c(F)c(-c4nc(N)cc(C)c4C(F)(F)F)c(Cl)cc23)C(C)C1,IC50,second compound 0.00316 µM,< 31.6 nM
same,IC50,second compound 0.01 µM,< 31.6 nM
same,IC50,second compound 0.0316 µM,< 31.6 nM
same,IC50,second compound 0.1 µM,< 31.6 nM
same,IC50,second compound 0.316 µM,< 31.6 nM
same,IC50,second compound 1 µM,< 31.6 nM
same,"viability, T/C",[1],12.4%
same,"viability, T/C",[2],11%
same,"viability, T/C",[3],9.71%
same,"viability, T/C",[4],13.9%
same,"viability, T/C","second compound 0.00316 µM, first compound 3.16 µM",8.57%
same,"viability, T/C","second compound 0.00316 µM, first compound 10 µM",4.65%
same,"viability, T/C",[5],10.6%
same,"viability, T/C",[6],8.09%
same,"viability, T/C",[7],7.67%
same,"viability, T/C",[8],4.13%
same,"viability, T/C","second compound 0.01 µM, first compound 3.16 µM",2.86%
same,"viability, T/C","second compound 0.01 µM, first compound 10 µM",1.6%
same,"viability, T/C",[9],8.44%
same,"viability, T/C",[10],6.97%
same,"viability, T/C",[11],5.95%
same,"viability, T/C",[12],3.55%
same,"viability, T/C","second compound 0.0316 µM, first compound 3.16 µM",2.24%
same,"viability, T/C","second compound 0.0316 µM, first compound 10 µM",1.34%
same,"viability, T/C",[13],8.36%
same,"viability, T/C",[14],6.36%
same,"viability, T/C",[15],3.79%
same,"viability, T/C",[16],3.04%
same,"viability, T/C","second compound 0.1 µM, first compound 3.16 µM",1.94%
same,"viability, T/C","second compound 0.1 µM, first compound 10 µM",1.11%
same,"viability, T/C",[17],8.27%
same,"viability, T/C",[18],6.69%
same,"viability, T/C",[19],4.1%
same,"viability, T/C",[20],5.15%
same,"viability, T/C","second compound 0.316 µM, first compound 3.16 µM",2.4%
same,"viability, T/C","second compound 0.316 µM, first compound 10 µM",1.49%
same,"viability, T/C",[21],7.44%
same,"viability, T/C",[22],6.59%
same,"viability, T/C",[23],4.3%
same,"viability, T/C",[24],2.92%
same,"viability, T/C","second compound 1 µM, first compound 3.16 µM",2.11%
same,"viability, T/C","second compound 1 µM, first compound 10 µM",1.04%
O=C(c1ccc(F)c(F)c1Nc1ccc(I)cc1F)N1CC(O)([C@@H]2CCCCN2)C1 + C=CC(=O)N1CCN(c2nc(OCC3CCCN3C)nc3c(F)c(-c4nc(N)cc(C)c4C(F)(F)F)c(Cl)cc23)C(C)C1,IC50,second compound 0.00316 µM,< 3.16 nM
same,IC50,second compound 0.01 µM,< 3.16 nM
same,IC50,second compound 0.0316 µM,< 3.16 nM
same,IC50,second compound 0.1 µM,< 3.16 nM
same,IC50,second compound 0.316 µM,< 3.16 nM
same,IC50,second compound 1 µM,< 3.16 nM
same,"viability, T/C","second compound 0.00316 µM, first compound 0.00316 µM",18.7%
same,"viability, T/C","second compound 0.00316 µM, first compound 0.01 µM",15.5%
same,"viability, T/C",[1],11.7%
same,"viability, T/C",[2],11.2%
same,"viability, T/C",[3],6.3%
same,"viability, T/C",[4],3.59%
same,"viability, T/C","second compound 0.01 µM, first compound 0.00316 µM",10.7%
same,"viability, T/C","second compound 0.01 µM, first compound 0.01 µM",9.82%
same,"viability, T/C",[5],7.43%
same,"viability, T/C",[6],7.21%
same,"viability, T/C",[7],5.24%
same,"viability, T/C",[8],2.8%
same,"viability, T/C","second compound 0.0316 µM, first compound 0.00316 µM",10.5%
same,"viability, T/C","second compound 0.0316 µM, first compound 0.01 µM",8.28%
same,"viability, T/C",[9],7.31%
same,"viability, T/C",[10],5.71%
same,"viability, T/C",[11],6.7%
same,"viability, T/C",[12],2.39%
same,"viability, T/C","second compound 0.1 µM, first compound 0.00316 µM",9.48%
same,"viability, T/C","second compound 0.1 µM, first compound 0.01 µM",8.63%
same,"viability, T/C",[13],6.77%
same,"viability, T/C",[14],5.29%
same,"viability, T/C",[15],3.4%
same,"viability, T/C",[16],2.5%
same,"viability, T/C","second compound 0.316 µM, first compound 0.00316 µM",9.04%
same,"viability, T/C","second compound 0.316 µM, first compound 0.01 µM",7.51%
same,"viability, T/C",[17],6.81%
same,"viability, T/C",[18],5.26%
same,"viability, T/C",[19],5.12%
same,"viability, T/C",[20],1.9%
same,"viability, T/C","second compound 1 µM, first compound 0.00316 µM",10%
same,"viability, T/C","second compound 1 µM, first compound 0.01 µM",8.81%
same,"viability, T/C",[21],8.35%
same,"viability, T/C",[22],5.6%
same,"viability, T/C",[23],4.91%
same,"viability, T/C",[24],2.61%

# From PubChem BioAssay AID2060893 (Molecular Pharmacology Branch, DTP, NCI, 2025)
